One data set concerns Streptococcus pneumoniae. Briefly: Minimum inhibitory concentration (MIC) by agar dilution. The class given is cell-based. As to conditions: in vitro, agar dilution (NCCLS 1993), Streptococcus pneumoniae strain SPNE 9912; read-out: Antibacterial Activity Minimum Inhibitory Concentration SPNE 9912. The text has this: The oxazolidinone antibacterial agents of this invention have useful activity against a variety of organisms. The in vitro activity of compounds of this invention can be assessed by standard testing procedures such as the determination of minimum inhibitory concentration (MIC) by agar dilution as described in “Approved Standard. Methods for Dilution Antimicrobial Susceptibility Tests for Bacteria That Grow Aerobically”, 3rd. ed., published 1993 by the National Committee for Clinical Laboratory Standards, Villanova, Pa. USA.
A general note: In agar dilution, organisms are placed on agar that contains the substance at set levels.

Values after ≈ are worked out from the molar mass of the structure shown.

A word on the melting point: it is the temperature, or range, at which the solid turns liquid. Regarding `CC(=S)NC[C@H]1CN(c2ccc3c(c2)CCS(=O)(=O)C3)C(=O)O1` [Example 12, (+)-N-[[(5S)-3-(3,4-Dihydro-2,2-dioxido-1H-2-benzothiopyran-6-yl)-2-oxo-5-oxazolidinyl]methyl]ethanethioamide], the melting point was 187 °C (dec.). The MIC in the data set on Streptococcus pneumoniae was found to be 1 µg/mL (≈ 2.82 µM).

Regarding `CC(=O)NC[C@H]1CN(c2ccc3c(c2)CCSC3)C(=O)O1` [Example 10, (−)-N-[[(5S)-3-(3,4-Dihydro-1H-2-benzothiopyran-6-yl)-2-oxo-5-oxazolidinyl]methyl]acetamide], the melting point was 112 to 114 °C (dec.). The MIC in the data set on Streptococcus pneumoniae stood at 1 µg/mL (≈ 3.26 µM). `CC(=S)NC[C@H]1CN(c2ccc3c(c2)COCC3)C(=O)O1` [Example 13, (+)-N-[[(5S)-3-(3,4-Dihydro-1H-2-benzopyran-7-yl)-2-oxo-5-oxazolidinyl]methyl]ethanethioamide]: the melting point was 165 °C (dec.). For the same molecule, the MIC in the data set on Streptococcus pneumoniae is 1 µg/mL (≈ 3.26 µM).

In the case of `CC(=S)NC[C@H]1CN(c2ccc3c(c2)CCSC3)C(=O)O1` [Example 11, (+)-N-[[(5S)-3-(3,4-Dihydro-1H-2-benzothiopyran-6-yl)-2-oxo-5-oxazolidinyl]methyl]ethanethioamide], the melting point is 112 to 114 °C (dec.). Further, the MIC in the data set on Streptococcus pneumoniae stood at 0.25 µg/mL (≈ 0.775 µM).

In the case of `CC(=O)NC[C@H]1CN(c2ccc3c(c2)CCN(C(=O)c2ccccc2)CC3)C(=O)O1` [Example 27, N-{[(5S)-3-(3-Benzoyl-1,2,4,5-tetrahydro-1H-3-benzazepin-7-yl)-2-oxo-1,3-oxazolidin-5-yl]methyl}acetamide], the MIC in the data set with Streptococcus pneumoniae is 1 µg/mL (≈ 2.45 µM). On the same count and under the same terms, the result for `CC(=O)NC[C@H]1CN(c2ccc3c(c2)CCCN(C(C)=O)C3)C(=O)O1` [Example 38, N-{[(5S)-3-(2-Acetyl-1,3,4,5-tetrahydro-1H-2-benzazepin-7-yl)-2-oxo-1,3-oxazolidin-5-yl]methyl}acetamide] reads 2 µg/mL (≈ 5.79 µM); that for `CC(=O)NC[C@H]1CN(c2ccc3c(c2)CCN(c2nnc(NC(=O)CO)s2)CC3)C(=O)O1` [Example 46, N-[5-(7-{(5S)-5-[(Acetylamino)methyl]-2-oxo-1,3-oxazolidin-3-yl}-1,2,4,5-tetrahydro-3H-3-benzazepin-3-yl)-1,3,4-thiadiazol-2-yl]-2-hydroxyacetamide], 0.5 µg/mL (≈ 1.09 µM). Turning to `CC(=O)NC[C@H]1CN(c2ccc3c(c2)CCN(C(=O)Cc2cccc(C(F)(F)F)c2)CC3)C(=O)O1` [Example 32], the MIC in the data set with Streptococcus pneumoniae came to 2 µg/mL (≈ 4.09 µM). In the case of `CC(=O)NC[C@H]1CN(c2ccc3c(c2)CCN(S(C)(=O)=O)CC3)C(=O)O1` [Example 28, N-({(5)-3-[3-(Methylsulfonyl)-1,2,4,5-tetrahydro-1H-3-benzazepin-7-yl]-2-oxo-1,3-oxazolidin-5-yl}methyl)acetamide], in the data set on Streptococcus pneumoniae, the MIC came to 4 µg/mL (≈ 10.5 µM). `CC(=O)NC[C@H]1CN(c2ccc3c(c2)CCN(C(=O)Cc2ccc(I)cc2)CC3)C(=O)O1` [Example 31, N-[((5S)-3-{3-[(4-Iodophenyl)acetyl]-1,2,4,5-tetrahydro-1H-3-benzazepin-7-yl}-2-oxo-1,3-oxazolidin-5-yl)methyl]acetamide]: in the data set with Streptococcus pneumoniae, the MIC is 1 µg/mL (≈ 1.83 µM). In the case of `CC(=O)NC[C@H]1CN(c2ccc3c(c2)CCN(C(=O)Cc2ccc(C(F)(F)F)cc2)CC3)C(=O)O1` [Example 33], in the data set on Streptococcus pneumoniae, the MIC came to 2 µg/mL (≈ 4.09 µM). On the same count and under the same terms, to `CC(=O)NC[C@H]1CN(c2ccc3c(c2)CCCN(C(=O)Nc2ccccc2)C3)C(=O)O1` [Example 40, 7-{(5S)-5-[(Acetylamino)methyl]-2-oxo-1,3-oxazolidin-3-yl}-N-phenyl-1,3,4,5-tetrahydro-2H-2-benzazepine-2-carboxamide] belongs 1 µg/mL (≈ 2.37 µM). Consider `COC(=O)N1CCc2cc(N3C[C@H](CNC(C)=O)OC3=O)ccc2C1` [Example 1, (−)-Methyl 6-[(5S)-5-[(acetylamino)methyl]-2-oxo-3-oxazolidinyl]-3,4-dihydro-2(1H)-isoquinolinecarboxylate], for which the MIC in the data set with Streptococcus pneumoniae came to 1 µg/mL (≈ 2.88 µM).

Take `CC(=O)NC[C@H]1CN(c2ccc3c(c2)CCN(C=O)C3)C(=O)O1` [Example 2, (−)-N-[[(5S)-3-[2-Formyl-1,2,3,4-tetrahydro-6-isoquinolinyl]-2-oxo-5-oxazolidinyl]methyl]acetamide]: the MIC in the data set with Streptococcus pneumoniae worked out at 1 µg/mL (≈ 3.15 µM). On the same count and under the same terms, to `CSc1nnc(N2CCc3ccc(N4C[C@H](CNC(C)=O)OC4=O)cc3CC2)s1` [Example 43, N-({(5S)-3-[3-(5-Methylthio-1,3,4-thiadiazol-2-yl)-1,2,4,5-tetrahydro-1H-3-benzazepin-7-yl]-2-oxo-1,3-oxazolidin-5-yl}methyl)acetamide] belongs 0.5 µg/mL (≈ 1.15 µM).

(Values after patent US6972286B2, “Oxazolidinones having a benzannulated 6- or 7-membered heterocycle” (Pharmacia and Upjohn Company, priority 2000, dated 2005).)
